Data from patent US6809107B1, “Neurotrophic pyrrolidines and piperidines, and related compositions and methods” (Ortho-McNeil Pharmaceutical, Inc., priority 1999, dated 2004).
Each block holds one compound with its values, some of them ahead of it.

How the values were obtained:
[1] = molecular target: T1, α-4,β-2 nicotinic acetycholine receptor (α4β2nAChR) (Rattus norvegicus, UniProt P09483+P12390); experiment: Nicotinic acetylcholine receptor binding assay (3H-cytisine)
T1 construct: crude synaptic membrane preparations from rat cerebral cortex, striatum and hippocampus; from tissue; host or cells: rat cerebral cortex, striatum and hippocampus (crude synaptic membranes, P2 fraction)
Description: Binding of ^3H-cytisine to neuronal nicotinic acetylcholine receptors is accomplished using crude synaptic membrane preparations from rat cerebral cortex, striatum and hippocampus. Either fresh or frozen membranes are homogenized in 50 volumes of 10 mM HEPES (N-2-hydroxyethylpiperazine-N′-2-ethanesulfonic acid, pH 7.4) and centrifuged at 42,000 g. The P2 fraction is resuspended in 40 volumes of 10 mM HEPES and centrifuged at 42,000 g. This step is repeated and the P2fraction was resuspended in 25 volumes (e.g., 1 g of tissue into 25 mL) of a medium comprised of Na^+-HEPES buffer (10 mM, pH 7.4), 5 mM MgCl2, 0.01% powdered bovine serum albumin (BSA) and 100 mM NaCl. […] The binding reaction is terminated by filtration using a Brandel Cell Harvester; the amount of bound ^3H-cytisine for each sample is quantitated using a Wallac LKB 1205 Betaplate liquid scintillation counter. […] Nonspecific binding is determined using 10 μM (+)-epibatidine to block all binding of ^3H-cytisine to the α-4,β-2 nicotinic acetycholine receptor (α4β2nAChR). The activity of each test compound is calculated as follows: after correcting for nonspecific binding, the percent inhibition of specific binding (total binding minus nonspecific) is calculated. […] The IC50 values are calculated by performing a nonlinear regression analysis of the data using a standard regression program.

[2] = tested on: Human M17 Neuroblastoma Cells; experiment: Neurite outgrowth assay in human M17 neuroblastoma cells; assay type: cell-based; details: MAP-2 immunofluorescence, active if greater than mean DMSO-treated control
Description: M17 human neuroblastoma cells are cultured in 1:1 ratio of EMEM and Ham's F12 with 1×NEM and 10% FBS. The culture media contains 1×PSN antibiotic and is exchanged every other day, and the cells are passed in log phase near confluence.
(§1) Cultures are incubated with normal horse serum (1:50; Vector Labs) for about 20 min, rinsed and then incubated with primary antibody, microtubule associated-protein 2 (anti-mouse MAP-2; 1:1000; Chemicon) for about 2 h at about RT. Following primary antibody, cultures are rinsed and incubated with fluorescein anti-mouse IgG (rat absorbed; 1:50; Vector Labs) for about 1 h. After fluorescein incubation, the cultures are rinsed and read in PBS on a fluorescent plate reader (excitation: 485 nm; emission: 530 nm). […] The response to test compound is reported as percent of DMSO-treated control.

[3] = tested on: Dorsal Root Ganglion (DRG); experiment: Dorsal Root Ganglion (DRG) culture, neurite outgrowth; assay type: cell-based, rat; design: key: + = Positive results for each experiment; − = Negative results for each experiment; details: neurite outgrowth from DRG, test compound 50-250 nM, days 1-5; positive if neurites of ≧1 diameter of the DRG; one symbol per experiment
Description: Dorsal Root Ganglion (DRG) Culture
DRG are dissected from newborn or 1-day-old CD rats and placed into PBS on ice. After rinsing twice with sterile plating medium, DRG are transferred to empty wells of a 6-well plate coated with polyomithine/laminin (Becton Dickinson Labware) using #7 curved forceps. Three ml/well of plating medium are then added very gently, so as not to disturb the DRG. Plating medium is Leibovitz's L-15 medium (Gibco), plus 0.6% glucose, 33 mM KCl, 10% FCS, 10 mM Hepes and penicillin/streptomycin/glutamine. After overnight incubation at about 37° C. in 5% CO2, this medium is replaced with 3 mL/well of assay medium [Leibovitz's L-15 medium plus 0.6% glucose, 1% FCS, 1% N-2 supplement (Gibco), 10 μM ara-C, 10 mM Hepes, and penicillin/streptomycin/glutamine] containing either vehicle (DMSO, 1/200,000), positive control (2-4 ng/mL NGF) or test compound (50-250 nM). All media are prepared fresh daily. DRG are microscopically examined for neurite outgrowth on days 1-5.

[4] = tested on: Long-Evans rats, compressed facial nerve; experiment: Rat facial nerve compression model; assay type: in vivo; details: p.o. about 20 mg/kg twice a day for 15 days after surgery; compared to vehicle and internal control; FIG. 1
Description: In this model, compressing the facial nerve causes paralysis of the whisker muscle on that side of the face. The untreated facial nerve on the other side functions as an internal control. […] The whisker movement recovery rate on the paralyzed side compared to the vehicle and internal control is shown in this FIGURE.
Long-Evans rats are anesthetized under ketamine (60 mg/kg)/xylazine (6mg/kg). The facial nerve is exposed and mechanically compressed with forceps near the stylomastoid foramen unilaterally with the opposite, non-lesioned side serving as an internal control. […] Rats received test compound p.o. at about 20 mg/kg twice a day for 15 days after the surgery. Control rats received vehicle only. Three to eight rats are tested in each group. Restoration of whisker movement after the treatment with compounds of the present invention is recorded at different post-operative time points daily, up to two weeks, and is shown in FIG. 1.

[5] = tested on: Primary Rat Hippocampal Cells; experiment: Neurite outgrowth assay in primary rat hippocampal cells; assay type: cell-based; details: MAP-2 immunofluorescence, active if greater than mean DMSO-treated control
Description: Hippocampal cells are dissected from the brains of embryonic day 18 rat pups and dissociated with trypsin (1 mg/mL) and trituration. Cells are seeded at 30,000 cells/well in 96-well plates filled with 100 μL MEM and 10% FBS. At 7 days in culture, cells are fixed with 4% paraformaldehyde and immuno-fluorescence is performed.
as §1

T1 sequence (P09483 31-630): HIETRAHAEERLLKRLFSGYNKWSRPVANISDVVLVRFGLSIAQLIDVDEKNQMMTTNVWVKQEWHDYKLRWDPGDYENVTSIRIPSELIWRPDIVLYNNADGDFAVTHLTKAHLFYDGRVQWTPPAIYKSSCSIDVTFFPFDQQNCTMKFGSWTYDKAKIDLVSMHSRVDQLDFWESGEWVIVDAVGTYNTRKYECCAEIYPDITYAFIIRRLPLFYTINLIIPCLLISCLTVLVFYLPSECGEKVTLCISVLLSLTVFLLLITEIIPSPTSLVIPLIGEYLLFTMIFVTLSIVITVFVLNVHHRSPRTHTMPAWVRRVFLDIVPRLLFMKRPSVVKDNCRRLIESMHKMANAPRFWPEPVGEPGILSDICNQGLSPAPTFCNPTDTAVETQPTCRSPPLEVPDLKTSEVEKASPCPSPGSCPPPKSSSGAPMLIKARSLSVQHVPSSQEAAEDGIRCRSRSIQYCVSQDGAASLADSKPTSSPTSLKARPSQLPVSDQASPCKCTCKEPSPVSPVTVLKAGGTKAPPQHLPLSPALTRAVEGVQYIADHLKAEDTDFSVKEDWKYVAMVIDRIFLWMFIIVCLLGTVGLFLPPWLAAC
T1 sequence (P12390 25-500): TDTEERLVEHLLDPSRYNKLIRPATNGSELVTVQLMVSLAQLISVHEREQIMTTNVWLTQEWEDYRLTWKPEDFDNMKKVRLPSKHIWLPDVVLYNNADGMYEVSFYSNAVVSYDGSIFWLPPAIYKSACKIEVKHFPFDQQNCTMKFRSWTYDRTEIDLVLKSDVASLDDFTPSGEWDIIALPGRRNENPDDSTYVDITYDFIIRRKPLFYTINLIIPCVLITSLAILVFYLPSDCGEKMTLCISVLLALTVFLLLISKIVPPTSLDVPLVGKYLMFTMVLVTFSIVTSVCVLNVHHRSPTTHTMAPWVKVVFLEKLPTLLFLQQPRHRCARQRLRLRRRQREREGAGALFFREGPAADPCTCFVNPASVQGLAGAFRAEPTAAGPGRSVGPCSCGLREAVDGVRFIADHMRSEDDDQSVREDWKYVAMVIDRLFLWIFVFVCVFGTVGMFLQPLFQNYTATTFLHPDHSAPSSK

SMILES: c1cncc(OCc2ncoc2[C@@H]2CCCN2)c1 [Compound 6]
IC50 [1]: 801 nM

SMILES: c1cncc(OCc2csc([C@@H]3CCCN3)n2)c1 [Compound 17]
IC50 [1]: 63.8 nM

SMILES: CCC(C)(C)C(=O)C(=O)N1CCC[C@H]1c1nc(COc2cccnc2)cs1 [Compound 19]
M17 Cell Response [2]: 110% of DMSO-treated control

SMILES: CCC(C)(C)C(=O)C(=O)N1CCC[C@H]1C(=O)NNC(=O)[C@@H]1CCCN1C(=O)C(=O)C(C)(C)CC [Compound 24]
DRG [3]: + and −

melting point: 123 to 124 °C
SMILES: CCC(C)(C)C(=O)C(=O)N1CCCC1c1nnc([C@@H]2CCCN2C(=O)C(=O)C(C)(C)CC)o1 (some centres unmarked) [Compound 30]
Restoration of whisker movement on the paralyzed side [4]: restored more rapidly

melting point: 132 to 133 °C
SMILES: O=C(C(=O)N1CCCC1c1nnc([C@@H]2CCCN2C(=O)C(=O)C2CCCCC2)o1)C1CCCCC1 (some centres unmarked) [Compound 49]

SMILES: CCC(C)(C)C(=O)C(=O)N1CCC[C@@H]1C(=O)NNC(=O)[C@H]1CCCN1C(=O)C(=O)C(C)(C)CC [Compound 63]
Rat Hippocampal Cell Response [5]: 110% of DMSO-treated control
